In US8183409B2, “High yield and rapid synthesis methods for producing metallo-organic salts” (Osteologix A/S, priority 2004, dated 2012):

Details: pH 7.5

O=C([O-])/C=C\C(=O)[O-].[Sr+2] [Maleate, strontium maleate]
solubility in buffered solution compared with pure water: decreased solubility
